Laboratory results from patent US9096544B2, “Therapeutic compounds” (Wayne State University, priority 2009, dated 2015).
In brackets after ≈: the same amount, converted by molar mass. Like-named read-outs stand apart in the source and are kept apart here.

Experiments:
[1] = test system: TF(v-SRC) cells; test: Test B: apoptosis of TF(v-SRC) cells (acridine orange/ethidium bromide, nuclear fragmentation); assay type: cell-based; conditions: FIG. 2C
Procedure: FIG. 2 illustrates apoptosis induction in FFMA-AML and TF(v-SRC) cells by 3-Cl-AHPC and compound 16. Cells were seeded at 1×10^4 cells/ml, grown for 24 h and then exposed to 1 μM compound 16 or 3-Cl-AHPC A) at various concentrations of the compound for 96 h and B) for increasing times of exposure. C) Induction of apoptosis by 3-Cl-AHPC, all-trans-retinoic acid, 9-cis-retinoic acid and TTNPB in FFMA-AML and TF(v-SRC) cells. The percentage of apoptotic cells was determined using acridine orange and ethidium bromide staining to determine nuclear fragmentation as described in the general biochemical and pharmacological materials and methods. The error bars represent the mean of three separate determinations +/− the standard deviation (SD).
FFMA-AML cells were obtained from a patient with a diagnosis of AML as indicated by the immunophenotyping described in Table 1. This patient was refractory to the chemotherapy regimens consisting of cytosine arabinoside given with daunomycin as well as high-dose cytosine arabinoside. Peripheral blood samples were obtained from the patient utilizing a Wayne State University Institutional Review Board approved protocol and the leukemic blasts were isolated utilizing Ficoll hypaque. The isolated leukemic cells (representing >99% of the cells) were subsequently cultured in RPMI 1640 supplemented with 10% heat-inactivated fetal bovine serum (FBS) and growth factors interleukin 3 (IL-3), granulocyte-colony stimulating factor (G-CSF), granulocyte/macrophage colony-stimulating factor (GM-CSF), and stem cell factor (SCF) as we have previously reported, and then the cells were maintained in 10% FBS and gentamycin (Zhang Y. et al., Blood, 2003; […]:3743-3752). The TF(v-SRC) leukemia cells have been previously described (Black J. H. et al., Leukemia. 2003; 17:155-159). TF(v-SRC) cells were grown in RPMI 1640 supplemented with 10% heat inactivated FBS.
Apoptosis of cells was determined by (1) acridine orange and ethidium bromide-staining to assess cells with nuclear fragmentation and chromatin condensation as previously described (Farhana L. et al., Cancer Res. 2006; 65:4909-4917) and (2) flow cytometry assessing Annexin V-FITC binding together with propidium iodide staining (Annexin V-FITC apoptosis Detection kit 1, BD Biosciences, San Diego, Calif.). Data acquisition was done on a FACS Calibur flow cytometer (BD) and analyzed with CellQuest software.
Cells were grown in the presence and absence of increasing concentrations of either 3-Cl-AHPC or compound 16 and for varying periods of time. There was a progressive increase in 3-Cl-AHPC- and compound 16-mediated apoptosis in both FFMA-AML and TF(v-SRC) cells with time and with increasing concentrations of the compounds. […] We therefore tested the sensitivity of FFMA-AML and TF(v-SRC) cells to apoptosis induction by tRA, 9-cis RA, and TTNPB (FIG. 2C).

[2] = test system: acute promyelocytic leukemia (APL); conditions: pharmacologic concentrations; cited from earlier work
[3] = test system: AML KG-1 human myeloid cell line; test: Test A: apoptosis induction in AML KG-1 cell line; assay type: cell-based
Excerpt: Inhibition of Cell Growth and Induction of Apoptosis in AML KG-1 Human Myeloid Cell Line.
Methods for measuring the inhibition of cell growth and induction of apotosis followed literature procedures (Dawson, M. I., et al., J. Med. Chem., 2007, 50, 2622-2639).

[4] = Test H: aqueous solubility by UV absorbance; assay type: physicochemical; conditions: thermodynamic from solid, 22° C.
Procedure: Standard curves at the UV λmax (330, 350 and 345 nm for 3-Cl-AHPC, 18 and 16, respectively) were generated using 0.245, 0.163, 0.049 and 0.025 mM 3-Cl-AHPC and 0.380, 0.178, 0.053 and 0.027 mM 18 and 16, which were prepared from 1.0% (wt/vol) solutions of compounds in Me2SO. […] Measurements for maximum solubilities in distilled water (pH 5) and phosphate-buffered saline (PBS, pH 7.2) at 22° C. were made by UV absorbance using solutions obtained after saturation at higher temperatures, overnight incubation at 22° C., and centrifugation to remove undissolved material.

SMILES	Apoptosis Induction (% control) 1.0 μM ([3]; treatment time 48 h) [% control]	Apoptosis Induction (% control) 5.0 μM ([3]; treatment time 48 h) [% control]	further results
CC1=C(/C=C/C(C)=C/C=C/C(C)=C/C(=O)O)C(C)(C)CCC1 [tRA, all-trans-retinoic acid]	–	–	induction of apoptosis [1]: no real increase in apoptosis; patients achieving a complete remission [2]: 90%
O=C(O)/C=C/c1ccc(-c2ccc(O)c(C34CC5CC(CC(C5)C3)C4)c2)c(Cl)c1	30	55	–
O=C(O)/C=C/c1cnc(-c2ccc(O)c(C34CC5CC(CC(C5)C3)C4)c2)c(Cl)c1	55	65	–
CCOC(=O)/C=C/c1ccc(-c2ccc(O)c(C34CC5CC(CC(C5)C3)C4)c2)nc1 [Compound 18, Ethyl(E)-3-{6-[3′-(1-adamantyl)-4′-hydroxyphenyl]-3-pyridinyl}-2-propenoate]	–	–	melting point: 215 to 217 °C; solubility ([4]; phosphate-buffered saline, aqueous buffer, PBS pH 7.2, read-out: Solubility (μM) at 22° C. PBS (pH 7.2)): 14 µM (≈ 5.65 µg/mL); solubility ([4]; distilled water pH 5, read-out: Solubility (μM) at 22° C. Distilled water (pH 5)): 7 µM (≈ 2.82 µg/mL)
O=C(O)/C=C/c1cnc(-c2ccc(O)c(C34CC5CC(CC(C5)C3)C4)c2)nc1 [drawing 23]	40	50	–
CC(=O)Oc1ccc(-c2ccc(/C=C/C(=O)O)cn2)cc1C12CC3CC(CC(C3)C1)C2	0	0	–
O=C(O)/C=C/c1ccc(-c2ccc(O)c(C34CC5CC(CC(C5)C3)C4)c2)nc1	48	59	–
O=C(O)/C=C/c1cnc(-c2ccc(O)c(C34CC5CC(CC(C5)C3)C4)c2)cn1 [Compound 23, (E)-3-{2-[3-(1-Adamantyl)-4-hydroxyphenyl]-5-pyrazinyl}-2-propenoic Acid]	–	–	melting point: 296 °C (dec.)
C/C(=C\c1ccc(C(=O)O)cc1)c1ccc2c(c1)C(C)(C)CCC2(C)C [TTNPB]	–	–	induction of apoptosis [1]: no real increase in apoptosis
O=C(O)/C=C/c1ccc(-c2ccc(O)c(C34CC5CC(CC(C5)C3)C4)c2)cn1	36	52	–
O=C(O)CNc1cnc(-c2ccc(O)c(C34CC5CC(CC(C5)C3)C4)c2)nc1 [Compound 17, 2-[3-(1-Adamantyl)-4-hydroxyphenyl]-5-(carboxymethylamino)pyrimidine]	–	–	melting point: 235 °C (dec.)
CCOC(=O)/C=C/c1ccc(-c2ccc(O)c(C34CC5CC(CC(C5)C3)C4)c2)nc1 [drawing 25]	55	–	Apoptosis Induction (% control) 1.0 μM ([3]; treatment time 24 h): 60 % control; Apoptosis Induction (% control) 5.0 μM ([3]; treatment time 24 h): 68 nd % control
O=C(O)/C=C/c1ccc(-c2ccc(O)c(C34CC5CC(CC(C5)C3)C4)c2)nn1	52	67	–
O=C(O)/C=C/c1cnc(-c2ccc(O)c(C34CC5CC(CC(C5)C3)C4)c2)cn1 [drawing 30]	39	50	–
O=C(O)CNc1cnc(-c2ccc(O)c(C34CC5CC(CC(C5)C3)C4)c2)nc1 [drawing 24]	0	0	–
CC1=C(/C=C/C(C)=C\C=C\C(C)=C\C(=O)O)C(C)(C)CCC1 [Compound 9-cis-RA, 9-cis-retinoic acid]	–	–	induction of apoptosis [1]: no real increase in apoptosis
